Measurements: patent US7858635B2 (priority 2005, dated 2010)

Assays:
M1 muscarinic receptor = biological target: T1, M1 muscarinic receptor (Homo sapiens, UniProt P11229); experiment: Functional mobilization of intracellular calcium (FLIPR, Fluo-3), M1-CHO cells; format: cell-based; conditions: for Emax: compound nos. 455-509, 100% efficacy is the maximum response obtained with the Carbachol control, read-out: M1 Efficacy; for M1 Activity: compounds 455-509
T1 construct: expressed in transfected cells; host or cells: CHO cells (M1-CHO, under zeocin and G418 selection)
T1 sequence (P11229 1-460): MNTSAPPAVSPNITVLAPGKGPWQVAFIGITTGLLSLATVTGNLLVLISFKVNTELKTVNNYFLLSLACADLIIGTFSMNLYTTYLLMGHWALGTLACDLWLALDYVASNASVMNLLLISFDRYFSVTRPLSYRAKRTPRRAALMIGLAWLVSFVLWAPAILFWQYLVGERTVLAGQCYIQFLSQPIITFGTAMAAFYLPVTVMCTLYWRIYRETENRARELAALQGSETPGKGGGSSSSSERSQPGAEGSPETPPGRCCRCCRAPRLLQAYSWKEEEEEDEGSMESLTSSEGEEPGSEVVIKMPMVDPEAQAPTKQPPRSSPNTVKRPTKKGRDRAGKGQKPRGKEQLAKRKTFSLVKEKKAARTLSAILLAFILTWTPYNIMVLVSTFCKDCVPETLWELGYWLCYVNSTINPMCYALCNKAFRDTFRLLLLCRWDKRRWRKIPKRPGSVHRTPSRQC
Method in brief: (§1)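 Fluo-3 read-out, ex 488/em 540 nm, 60 sec on FLIPR 3. For agonist mode, compound added directly; for inhibition, 15 min compound pre-incubation before carbachol at EC80 (added as a 3× solution), or co-application. Buffer pH 7.4 with 1 mM probenecid; DMSO 0.5%.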

M4 muscarinic receptor = biological target: T2, M4 muscarinic receptor (Homo sapiens, UniProt P08173); experiment: Functional mobilization of intracellular calcium (FLIPR, Fluo-3), M4-CHO cells; format: cell-based; conditions: for Emax: compound nos. 455-509, 100% efficacy is the maximum response obtained with the Carbachol control, read-out: M4 Efficacy; for M4 Activity: compounds 455-509
T2 construct: expressed in transfected cells; host or cells: CHO cells (M4-CHO, under puromycin, zeocin and blasticidin selection)
T2 sequence (P08173 1-479): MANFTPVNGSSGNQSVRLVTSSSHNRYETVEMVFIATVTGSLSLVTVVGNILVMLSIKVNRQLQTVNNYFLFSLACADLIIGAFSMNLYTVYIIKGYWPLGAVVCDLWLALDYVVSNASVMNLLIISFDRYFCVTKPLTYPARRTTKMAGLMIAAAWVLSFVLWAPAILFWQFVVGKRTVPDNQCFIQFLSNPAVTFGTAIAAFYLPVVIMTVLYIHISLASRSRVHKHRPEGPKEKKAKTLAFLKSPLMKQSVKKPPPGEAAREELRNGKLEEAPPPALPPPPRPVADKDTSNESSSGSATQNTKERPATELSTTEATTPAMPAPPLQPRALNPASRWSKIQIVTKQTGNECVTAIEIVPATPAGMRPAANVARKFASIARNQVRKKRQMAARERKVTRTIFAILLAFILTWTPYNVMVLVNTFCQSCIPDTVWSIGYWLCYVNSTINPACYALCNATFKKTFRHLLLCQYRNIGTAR
Method in brief: as §1

Compound | Emax (M1 muscarinic receptor) | M1 Activity (M1 muscarinic receptor) | Emax (M4 muscarinic receptor) | M4 Activity (M4 muscarinic receptor)
CCc1nsc(N2CCC(N3CCC4(CC3)CN(C(C)=O)c3ccccc34)CC2)n1 [compound 498] | > 100% | +++ (activity was measured to be less than or equal to 2.0 μM) | 25 to 100% | ++ (activity was measured to be between 2.0 μM and 5.0 μM)
Cc1csc(N2CCC(N3CCC4(CC3)CN(C(=O)N(C)C)c3ccccc34)CC2)n1 [compound 499] | > 100% | + (activity was measured to be greater than or equal to 5.0 μM) | 25 to 100% | ++ (activity was measured to be between 2.0 μM and 5.0 μM)
CN(C)C(=O)N1CC2(CCN(C3CC4CCC(C3)N4c3cnccn3)CC2)c2ccccc21 (centres unmarked) [compound 500] | > 100% | +++ (activity was measured to be less than or equal to 2.0 μM) | 25 to 100% | ++ (activity was measured to be between 2.0 μM and 5.0 μM)
Cc1nsc(N2C3CCC2CC(N2CCC4(CCN(C(=O)N(C)C)c5ccccc54)CC2)C3)n1 (centres unmarked) [compound 501] | > 100% | +++ (activity was measured to be less than or equal to 2.0 μM) | 25 to 100% | ++ (activity was measured to be between 2.0 μM and 5.0 μM)
CCc1nsc(N2CCC(N3CCC4(CC3)C[C@H](N(CC(F)(F)F)C(C)=O)c3ccccc34)CC2)n1 [compound 502] | 25 to 100% | ++ (activity was measured to be between 2.0 μM and 5.0 μM) | 25 to 100% | ++ (activity was measured to be between 2.0 μM and 5.0 μM)
CC(=O)N1CC2(CCN(C3CCN(c4cncc(C5CC5)n4)CC3)CC2)c2ccccc21 [compound 503] | < 25% | +++ (activity was measured to be less than or equal to 2.0 μM) | < 25% | ++ (activity was measured to be between 2.0 μM and 5.0 μM)
CN(C)C(=O)N1CC2(CCN(C3CCN(c4nccs4)CC3)CC2)c2ccccc21 [compound 504] | 25 to 100% | + (activity was measured to be greater than or equal to 5.0 μM) | 25 to 100% | ++ (activity was measured to be between 2.0 μM and 5.0 μM)
CCc1nsc(N2CCC(N3CCC4(CC3)C[C@H](N(CCOC)C(C)=O)c3ccccc34)CC2)n1 [compound 505] | > 100% | +++ (activity was measured to be less than or equal to 2.0 μM) | 25 to 100% | ++ (activity was measured to be between 2.0 μM and 5.0 μM)
CN(C)C(=O)N1CC2(CCN(C3CCN(c4ncns4)CC3)CC2)c2ccccc21 [compound 506] | > 100% | ++ (activity was measured to be between 2.0 μM and 5.0 μM) | 25 to 100% | ++ (activity was measured to be between 2.0 μM and 5.0 μM)
Cc1csc(N2CCC(N3CCC4(CCN(C(=O)N(C)C)c5ccccc54)CC3)CC2)n1 [compound 508] | 25 to 100% | ++ (activity was measured to be between 2.0 μM and 5.0 μM) | 25 to 100% | ++ (activity was measured to be between 2.0 μM and 5.0 μM)
CN(C)C(=O)N1CC2(CCN(C3CCN(c4cnc(Br)cn4)CC3)CC2)c2ccccc21 [compound 509] | > 100% | ++ (activity was measured to be between 2.0 μM and 5.0 μM) | 25 to 100% | ++ (activity was measured to be between 2.0 μM and 5.0 μM)
